Test systems include HCT-15; PC-3; 786-0; NCI-H23; U-251; HL-60; SR; UO-31; A498; COLO 205; RPMI-8226; HOP-62; HT-29; T47D; HCC 2998; SF-295; NCI-H460; IGROV-1; SK-OV-3.
Common to all, as to experiment: NCI tumour cell line growth inhibition, 48 h

SMILES strings stand for the structures.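 Where inhibition never reached the appropriate level, the endpoint shown equals the highest concentration tested. Otherwise, values were interpolated linearly from a five-concentration, 48-hour dose response in 96-well plates. GI50 marks 50% less growth.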 Calls of active or inactive are those of the source. Cut-off read from the data, not from the text of the source: active = GI50 up to about 1.1 µM and inactive = higher. Residues, ends and D or L forms follow the SMILES beside them. *: point of attachment. Cbz = O=C(OCc1ccccc1)* Bounds are passed on as bounds.

As for `CC(C)C1=CC23CCC4C(C)(C(=O)O)CCCC4(C)C2CC1C1C(=O)N(c2ccc(N4C(=O)C5C6CC7C8(C)CCCC(C)(C(=O)O)C8CCC7(C=C6C(C)C)C5C4=O)cc2)C(=O)C13` (configuration not stated), the GI50 in the assay on HCT-15 is 12.6 µM; in the assay with PC-3, 3.2 µM (inactive); in the assay on 786-0, 13.1 µM (inactive); with NCI-H23 it was 3.79 µM (inactive); in the assay with U-251, 4.28 µM (inactive); with HL-60, 3.4 µM (inactive). For the same molecule, the GI50 is 3.59 µM (inactive) with SR; 18.5 µM (inactive) in the assay on UO-31; 11.2 µM (inactive) with A498; 3.47 µM (inactive) in the assay on COLO 205; 3.96 µM (inactive) in the assay with RPMI-8226; 5.12 µM (inactive) with HOP-62. Also, the results for the GI50 in the assay on HT-29, with T47D and in the assay on HCC 2998 were 2.45 µM (inactive), 12.1 µM (inactive) and 4.41 µM (inactive), respectively.
On to `CCOC(=O)c1ccc(Nc2nc3ccccc3nc2-c2cccs2)cc1`, for which the GI50 in the assay with HCT-15 was 25.3 µM; in the assay on PC-3, 24.8 µM (inactive); in the assay with 786-0 it was 50.7 µM (inactive); in the assay on NCI-H23 it was > 100 µM (inactive); with U-251 it was 97.9 µM (inactive); with HL-60 it was 24.8 µM (inactive). Besides, the GI50 was 49.4 µM (inactive) with SF-295; 26.9 µM (inactive) with SR; 73.6 µM (inactive) in the assay with UO-31; 96.6 µM (inactive) in the assay with COLO 205; 34 µM (inactive) in the assay on NCI-H460; 62.8 µM (inactive) in the assay on RPMI-8226. Besides, the GI50 with IGROV-1 is > 100 µM (inactive); in the assay on HOP-62 it was > 100 µM (inactive); in the assay on T47D, 16.9 µM (inactive); in the assay with HCC 2998, 23.1 µM (inactive).
On to `Cc1cccc(N(C(=O)Nc2ccc(Cl)c(Cl)c2)C2=NCC(C)S2)c1` (configuration not stated), for which the GI50 with HCT-15 was 41.6 µM; in the assay on SK-OV-3, > 100 µM (inactive); in the assay with PC-3, 43.9 µM (inactive); in the assay on 786-0, 31.8 µM (inactive); in the assay on NCI-H23, 37.3 µM (inactive); in the assay with U-251, 62.5 µM (inactive). In addition, the GI50 in the assay with HL-60 was 41.6 µM (inactive); with SF-295, 78.3 µM (inactive); in the assay on SR, 32.6 µM (inactive); with UO-31, > 100 µM (inactive); with A498, 57.8 µM (inactive); with COLO 205, 44.7 µM (inactive). Further, the GI50 is 41.9 µM (inactive) in the assay with NCI-H460; 49.1 µM (inactive) in the assay with RPMI-8226; 69.7 µM (inactive) with IGROV-1; > 100 µM (inactive) with HOP-62; 11.4 µM (inactive) in the assay with HT-29; 9.84 µM (inactive) in the assay on T47D. Also, in the assay with HCC 2998, the GI50 is 36.8 µM (inactive).
With `Cc1ccc(/C=C2\CN(C)CC3=C2N=C(S)NC3c2ccc(C)cc2)cc1` (configuration not stated), the GI50 with HCT-15 was 31.8 µM; in the assay on SK-OV-3 it was > 100 µM (inactive); in the assay with PC-3 it was 32.1 µM (inactive); in the assay on 786-0, 21 µM (inactive); in the assay on NCI-H23 it was 39 µM (inactive); in the assay on U-251 it was 42.8 µM (inactive). The GI50 in the assay with HL-60 is 28.2 µM (inactive); with SF-295, 36.9 µM (inactive); in the assay with SR, < 0.01 µM (active); in the assay with UO-31, 55.1 µM (inactive); in the assay on A498 it was > 100 µM (inactive); with COLO 205 it was 19 µM (inactive). In addition, the GI50 with NCI-H460 is 37.6 µM (inactive); in the assay with IGROV-1 it was 47.2 µM (inactive); with HOP-62 it was 40.5 µM (inactive); in the assay with HT-29, 30.8 µM (inactive); in the assay with T47D, > 100 µM (inactive); in the assay on HCC 2998 it was 41.5 µM (inactive).
`C=CCC(CC=O)(C(=O)OCC)C(=O)OCC`: the GI50 in the assay on HCT-15 was over 100 µM; in the assay with SK-OV-3, > 100 µM (inactive); in the assay on PC-3 it was > 100 µM (inactive); with 786-0, > 100 µM (inactive); in the assay with NCI-H23, > 100 µM (inactive); in the assay with U-251 it was > 100 µM (inactive). Besides, the GI50 in the assay on HL-60 is 86.1 µM (inactive); in the assay on SF-295, > 100 µM (inactive); in the assay on SR it was > 100 µM (inactive); with UO-31, 76.2 µM (inactive); in the assay with A498, > 100 µM (inactive); with COLO 205, > 100 µM (inactive). The GI50 in the assay on NCI-H460, in the assay on RPMI-8226, in the assay with IGROV-1, with HOP-62 and in the assay on HT-29 was > 100 µM (inactive) throughout.
Regarding `Cc1ccc(S(=O)(=O)N/N=C2\CC(C)OC3=C2CCCCCC3)cc1` (configuration not stated), the GI50 was 26.1 µM (inactive) in the assay on SK-OV-3; 19.2 µM (inactive) in the assay with PC-3; 17.1 µM (inactive) in the assay on 786-0; 20.5 µM (inactive) in the assay with NCI-H23; 23 µM (inactive) in the assay with HL-60; 15.8 µM (inactive) with SF-295. Further, the GI50 was 17 µM (inactive) with SR; 17.4 µM (inactive) in the assay with UO-31; 15.5 µM (inactive) in the assay with A498; 20.9 µM (inactive) in the assay with COLO 205; > 100 µM (inactive) in the assay with NCI-H460; 21.9 µM (inactive) in the assay on RPMI-8226. Also, the GI50 in the assay on IGROV-1 is 19.1 µM (inactive); in the assay with HOP-62, 18.5 µM (inactive); with HT-29, 17.5 µM (inactive); with T47D, 76.6 µM (inactive).
Consider `CCOC(=O)CCC(NC(=O)OCc1ccccc1)C(=O)NC(CCC(=O)OCC)C(=O)OCC` (configuration not stated) (Cbz-Glu(OEt)-Glu(OEt)-OEt; configuration not given here), for which the GI50 with HCT-15 is over 100 µM; in the assay with SK-OV-3, > 100 µM (inactive); with PC-3, > 100 µM (inactive); in the assay on 786-0, > 100 µM (inactive); in the assay with NCI-H23 it was > 100 µM (inactive); in the assay with U-251 it was > 100 µM (inactive). Also, the GI50 in the assay on SF-295, in the assay on SR, in the assay on UO-31, in the assay with A498, with COLO 205 and in the assay on NCI-H460 was > 100 µM (inactive) in each case. The GI50 in the assay on RPMI-8226, in the assay on IGROV-1, with HOP-62, in the assay on HT-29, in the assay with T47D and in the assay with HCC 2998 was > 100 µM (inactive) each time.
In the case of `Cc1ccccc1C1CC(=O)CC(c2ccccc2C)C12C(=O)NC(=S)NC2=O` (configuration not stated), the GI50 in the assay on HCT-15 was 20.7 µM; in the assay with SK-OV-3, 37.2 µM (inactive); with PC-3 it was 22.3 µM (inactive); with 786-0 it was 34.9 µM (inactive); with NCI-H23, 35.2 µM (inactive); in the assay on U-251 it was 30.7 µM (inactive). The GI50 in the assay with HL-60 is 21 µM (inactive); with SF-295, 24.8 µM (inactive); with SR it was 37.2 µM (inactive); in the assay with UO-31 it was 17.9 µM (inactive); in the assay on A498 it was 22.9 µM (inactive); in the assay on COLO 205, 19.5 µM (inactive). In addition, the GI50 was 19.4 µM (inactive) with NCI-H460; 12.6 µM (inactive) in the assay on RPMI-8226; 27.5 µM (inactive) in the assay with HOP-62; 22.3 µM (inactive) in the assay with HT-29; 42.1 µM (inactive) with T47D; 9.64 µM (inactive) in the assay with HCC 2998.
